# What was measured:
# [1] = tested on: RNA transcripts of genes having intronic REMS elements; assay: Change in isoform abundance and iExon/exon inclusion (ΔPSI, Fisher's Exact Test) in the presence of compound; format: cell-based; conditions: doses ranging from 0.3 μM to 3 μM, statistically significant adjusted Fisher's Exact Test p value
# Description: Techniques known to one skilled in the art may be used to determine the amount of an RNA transcript(s). In some embodiments, the amount of one, two, three or more RNA transcripts is measured using deep sequencing, such as ILLUMINA® RNASeq, ILLUMINA® next generation sequencing (NGS), ION TORRENT™ RNA next generation sequencing, 454™ pyrosequencing, or Sequencing by Oligo Ligation Detection (SOLID™). In other embodiments, the amount of multiple RNA transcripts is measured using an exon array, such as the GENECHIP® human exon array. In certain embodiments, the amount of one, two, three or more RNA transcripts is determined by RT-PCR. In other embodiments, the amount of one, two, three or more RNA transcripts is measured by RT-qPCR or digital color-coded barcode technology. Techniques for conducting these assays are known to one skilled in the art. […]
# Where “U” represents the value for probability of iExon inclusion (a+b)/2/[(a+b)/2+c]^U in the absence of the compound; and, where “C” represents the value for probability of iExon inclusion (a+b)/2/[(a+b)/2+c]^C in the presence of the compound. The values for “a” and “b” represent the number of reads supporting inclusion of an iExon in an RNA transcript. In other words, the “a” value is derived from the amount of reads for a first intronic nucleotide sequence comprising, in 5′ to 3′ order: a first exon having a 5′ splice site operably linked and upstream from a first intronic nucleotide sequence comprising a first branch point further operably linked and upstream from a first intronic 3′ splice site (upstream of the nascent iExon). The “b” value is derived from the amount of reads for a second intronic nucleotide sequence comprising, in 5′ to 3′ order: an iREMS sequence operably linked downstream from the first intronic 3′ splice site and upstream from a second intronic nucleotide sequence comprising a second branch point further operably linked and upstream from a second intronic 3′ splice site of a second exon. The value for “c” represents the number of reads supporting exclusion of an iExon. […]
# GM04856 lymphocyte cells = assay: Endpoint RT-PCR for iExon-containing spliced product in GM04856 lymphocyte cells; format: cell-based; conditions: 10 nM, 1 μM or 10 μM, ~20 h, FIGS. 2A-D and 3-6A
# Description: Cell treatment: GM04856 lymphocyte cells were diluted in a medium composed of DMEM, 10% FBS and 1× Pen/Strep to a concentration of 2.5e5 cells/mL. 2 mL (500K cells) were seeded in 6-well plates and recovered for 4 h at 37° C., 5% CO2. Compound dilutions were prepared as 2× compound stock in medium (e.g. for final 100 nM, make a 200 nM stock). After 4 h recovery, 2 mL of the 2× compound stock were added to each well, resulting in 4 mL/well with 1× final compound concentration. The cells were incubated for ˜20 h at 37° C., 5% CO2. After incubation, the cells were pelleted for 5 min at 1000 rpm. The supernatant was vacuum-removed and the cells were resuspended in 350 μl of RLT buffer (w/10 μl/mL beta-mercapto-ethanol, RNeasy kit). Total RNA was isolated using the RNeasy Mini Kit from Qiagen according to the manufacturer's instructions. The concentration of the resulting total RNA was determined using Nanodrop and diluted with water to a final concentration of 25 ng/μL.
# Endpoint PCR: 20 μL endpoint RT-PCR5 were set up in 96-well plates using the AgPath-ID One-Step RT-PCR Reagents (Applied Biosystems) according to the manufacturer. Each reaction contained 200 nM forward primer, 200 nM reverse primer, and 50 ng total RNA. […] 10 μL of each RT-PCR reactions were analyzed on 2% 48-well E-Gels (Invitrogen) (pre-run 1 min, run 14 min) and imaged using an BioRad Gel Doc EZ Imager. […]
smiles,measurement,setting,value
CCc1nc(C)cn2nc(-c3cc(=O)n4cc(C5CCN(C)CC5)cc(C)c4n3)cc12 [Compound 774],effect on change in isoform abundance as a result of having intronic REMS elements,[1]; genes of Table 7,demonstrate an effect on change in isoform abundance
same,effect on inclusion of an iExon with a corresponding change in isoform abundance,[1]; genes of Table 7a,demonstrate an effect on inclusion of an iExon with a corresponding change in isoform abundance
same,effect on inclusion of an exon with a corresponding change in isoform abundance,[1]; genes of Table 7b,demonstrate an effect on inclusion of an exon with a corresponding change in isoform abundance
same,"PCR product containing the intronic-derived exon (endpoint RT-PCR, agarose gel)",GM04856 lymphocyte cells,appearance of a slower migrating PCR product containing the intronic-derived exon

# Source: patent publication US11702646B2, “Methods for modulating RNA splicing” (PTC THERAPEUTICS, INC., priority 2016, dated 2023)
